Source: patent publication US20250120399A1, “METHODS AND COMPOSITIONS FOR ALTERING METABOLITES IN VITIS SPP. AND PREVENTING PESTS AND PATHOGENS” (Impello Biosciences, Inc., priority 2022, published 2025)
Where “and” joins values, the source holds several entries; their conditions need not be identical. Identical values can stand only once.

Tests used:
[1] = tested on: powdery mildew (Erysiphe necator); assay: Powdery mildew on leaf and fruit under the microscope, 2021 field trial (Example 3); assay type: in vivo; details: cabernet sauvignon; approx. 5 mM MDJ at 50 gal/acre, four applications
Procedure: MDJ was applied to fields of grape to investigate the efficacy of MDJ in preventing bunch rot on (Botrytis cinerea) and powdery mildew (Erysiphe necator) on grapes. […] (1 liter) per 50 gallons of water (approximately a 5 mM solution of MDJ). The composition was then applied (at a rate of 50 gallons per acre) to three acres (1245 vines/acre) of a cabernet sauvignon variety grown in Napa Valley, CA. There was a total of four applications between June and September using a ground spray rig. Several leaf and fruit samples were collected to access the presence of powdery mildew under the microscope and compared to leaf and fruit of plants treated with the grower standard.

[2] = tested on: Grapevine (Malbec variety); assay: Leaf sap Brix by refractometer, Malbec field trial (Example 1); assay type: in vivo, Vitis vinifera; details: for Brix, individual leaf: leaf no. 1-25, one line per leaf
Procedure: An eliciting composition and methods of use to alter metabolite production were tested on 6 acres of a Malbec variety planted in 1999 in Napa Valley, California. Plants were spaced 5′×10′ (900 vines per acre) and grouped into randomized blocks of 900 vines per group, with six replicates covering three acres for the treatment group, and six replicates covering three acres for the control group. The treatment group received two applications of 32 oz of MDJ applied at a rate of 100 gallons per acre (2.5 mM), once prior to veraison on Aug. 9, 2021 and again when 5-10% of berries were starting to blush (veraison) using a ground spray rig (backpack sprayer). From within each replicate, three plants were selected at random, and 25 leaves from each plant were randomly selected for analysis. The internal sap of the leaves was tested using a refractometer on the days shown below in Table 4 and FIG. 1. Data from each replicate was averaged (25 leaves from each plant, 3 plants).

[3] = Malbec, 2.5 mM MDJ, average of all replicate groups sampled
[4] = Replicate 1 sampled on Aug. 15, 2021, MDJ treated Plant #1
[5] = Replicate 1 sampled on Aug. 15, 2021, MDJ treated Plant #2
[6] = Replicate 1 sampled on Aug. 15, 2021, MDJ treated Plant #3
[7] = Replicate 2 sampled on Sep. 22, 2021, MDJ treated Plant #1
[8] = Replicate 2 sampled on Sep. 22, 2021, MDJ treated Plant #2
[9] = Replicate 2 sampled on Sep. 22, 2021, MDJ treated Plant #3
[10] = Replicate 3 sampled on Sep. 30, 2021, MDJ treated Plant #1
[11] = Replicate 3 sampled on Sep. 30, 2021, MDJ treated Plant #2
[12] = Replicate 3 sampled on Sep. 30, 2021, MDJ treated Plant #3

SMILES: CCCCCC1C(=O)CCC1CC(=O)OC (stereo not drawn) [MDJ, methyl dihydrojasmonate]
- Control of powdery mildew vs grower standard [1]: the same, or better, control of powdery mildew as the grower standard
- Brix, individual leaf ([2]; Malbec, 2.5 mM MDJ, Replicate 1 sampled on Aug. 15, 2021, MDJ treated Plant #1): 21.0 and 20.0 (2×) and 19.0 (2×) and 19.8 (3×) and 19.5 (3×) and 18.7 (2×) and 19.4 (2×) and 20.5 (2×) and 18.9 (5×) and 18.4 and 19.9 (2×)
- Brix, individual leaf ([2]; Malbec, 2.5 mM MDJ, Replicate 1 sampled on Aug. 15, 2021, MDJ treated Plant #2): 18.8 and 22.1 and 19.6 and 18.7 and 18.9 (2×) and 19.7 (2×) and 19.0 (2×) and 21.0 (2×) and 20.1 and 19.2 (2×) and 21.1 and 21.8 and 19.1 (2×) and 18.3 and 18.0 and 18.6 and 22.8 and 19.5 and 19.3
- Brix, individual leaf ([2]; Malbec, 2.5 mM MDJ, Replicate 1 sampled on Aug. 15, 2021, MDJ treated Plant #3): 19.1 and 19.7 (2×) and 19.0 (2×) and 21.0 and 21.8 (2×) and 19.2 (2×) and 20.0 and 19.10 and 19.00 (2×) and 19.30 (2×) and 19.60 and 19.40 (2×) and 18.80 and 18.90 (2×) and 19.6 and 18.3 and 18.9
- Brix, individual leaf ([2]; Malbec, 2.5 mM MDJ, Replicate 2 sampled on Sep. 22, 2021, MDJ treated Plant #1): 23.9 and 26.3 and 23.4 and 26.8 and 24.3 and 23.1 and 25.0 and 22.9
- Brix, individual leaf ([2]; Malbec, 2.5 mM MDJ, Replicate 2 sampled on Sep. 22, 2021, MDJ treated Plant #2): 26.5 and 25.5 and 24.8 and 24.9 and 26.7 and 23.8 and 24.0 and 25.0
- Brix, individual leaf ([2]; Malbec, 2.5 mM MDJ, Replicate 2 sampled on Sep. 22, 2021, MDJ treated Plant #3): 25.00 (2×) and 19.90 (2×) and 22.40 and 23.80 and 19.30 and 24.60 and 24.50
- MDJ TREATED averages, BRIX METRIC Juice-SAP [2, 3]: 26.1
- Percent increase of Brix, MDJ treated vs control [2, 3]: 44.5%
- Percent increase of Brix, MDJ treated vs control ([2]; Malbec, 2.5 mM MDJ, replicate group 2, 22-Sep): 59.4%
- Percent increase of Brix, MDJ treated vs control ([2]; Malbec, 2.5 mM MDJ, replicate group 3, 30-Sep): 93.3%
- Percent increase of Brix, MDJ treated vs control ([2]; Malbec, 2.5 mM MDJ, replicate group 4, 5-Oct): 46.3%
- Percent increase of Brix, MDJ treated vs control ([2]; Malbec, 2.5 mM MDJ, replicate group 5, 10-Oct): 25%
- Percent increase of Brix, MDJ treated vs control ([2]; Malbec, 2.5 mM MDJ, replicate group 6, 30-Oct): 62.5%
- MDJ TREATED averages, BRIX METRIC Juice-SAP ([2]; Malbec, two applications of 32 oz MDJ at 100 gal/acre (2.5 mM), replicate group 1, 15-Aug): 19.6
- MDJ TREATED averages, BRIX METRIC Juice-SAP ([2]; Malbec, two applications of 32 oz MDJ at 100 gal/acre (2.5 mM), replicate group 2, 22-Sep): 24.4
- MDJ TREATED averages, BRIX METRIC Juice-SAP ([2]; Malbec, two applications of 32 oz MDJ at 100 gal/acre (2.5 mM), replicate group 3, 30-Sep): 29.0
- MDJ TREATED averages, BRIX METRIC Juice-SAP ([2]; Malbec, two applications of 32 oz MDJ at 100 gal/acre (2.5 mM), replicate group 4, 5-Oct): 30.0
- MDJ TREATED averages, BRIX METRIC Juice-SAP ([2]; Malbec, two applications of 32 oz MDJ at 100 gal/acre (2.5 mM), replicate group 5, 10-Oct): 27.5
- MDJ TREATED averages, BRIX METRIC Juice-SAP ([2]; Malbec, two applications of 32 oz MDJ at 100 gal/acre (2.5 mM), replicate group 6, 30-Oct): 26.0
- Plant Brix vs control ([2]; Malbec, two applications of MDJ (2.5 mM)): increase in plant Brix
- % BRIX [2, 4]: 77.9%
- AVG Brix of 25 leaves [2, 4]: 19.5
- % BRIX [2, 5]: 78.8%
- AVG Brix of 25 leaves [2, 5]: 19.7
- % BRIX [2, 6]: 77.9%
- AVG Brix of 25 leaves [2, 6]: 19.5
- % BRIX [2, 7]: 99.5%
- AVG Brix of 25 leaves [2, 7]: 24.9
- % BRIX [2, 8]: 101.0%
- AVG Brix of 25 leaves [2, 8]: 25.3
- % BRIX [2, 9]: 91.8%
- AVG Brix of 25 leaves [2, 9]: 23.0
- % BRIX [2, 10]: 111.9%
- AVG Brix of 25 leaves [2, 10]: 28.0
- % BRIX [2, 11]: 117.9%
- AVG Brix of 25 leaves [2, 11]: 29.5
- % BRIX [2, 12]: 117.9%
- AVG Brix of 25 leaves [2, 12]: 29.5
